# Test results: patent US10968193B2, “Antidiabetic bicyclic compounds” (Merck Sharp & Dohme Corp., priority 2014, dated 2021)
# Target: T1, human GPR40 (Homo sapiens, UniProt O14842)
# T1 construct: expressed in transfected cells; host or cells: HEK cells stably expressing the aequorin reporter
# Test: Inositol Phosphate Turnover (IP1) Assay 3
# Type: cell-based
# Settings: HEK cells stably expressing human GPR40
# In short: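 HEK cells stably expressing human GPR40, plated 16 h before, were treated with compound for 60 min at 37 °C in stimulation buffer. IP1 measured by HTRF (665/620 nm ratio) against an IP1 standard curve; activity normalized to a reference compound, EC50 from 4-parameter fit.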
# T1 sequence (O14842 whole entry): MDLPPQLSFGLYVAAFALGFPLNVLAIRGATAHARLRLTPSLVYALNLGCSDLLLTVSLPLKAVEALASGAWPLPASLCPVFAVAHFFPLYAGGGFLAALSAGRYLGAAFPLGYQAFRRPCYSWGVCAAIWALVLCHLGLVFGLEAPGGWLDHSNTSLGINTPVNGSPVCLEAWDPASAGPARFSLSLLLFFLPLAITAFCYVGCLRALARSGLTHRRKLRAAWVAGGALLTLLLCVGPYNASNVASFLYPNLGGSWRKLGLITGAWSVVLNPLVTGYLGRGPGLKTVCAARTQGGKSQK
row,SMILES,EC50 [nM]
1,CCN(Cc1cc(C2CCc3ccc([C@H](C4CC4)[C@H](C)C(=O)O)cc3O2)ccc1-c1ccnc(OC)c1)C(C)(C)C (stereo partly drawn) [Example 236],1.3
2,"COc1cc(-c2ccc([C@@H]3CCc4ccc([C@H](C5CC5)[C@H](C)C(=O)O)cc4O3)cc2CN(C)C(C)(C)C)c(F)cn1 [Example 226, Sodium (2S,3R)-3-((S)-2-(3-((tert-butyl(methyl)amino)methyl)-4-(5-fluoro-2-methoxypyridin-4-yl)phenyl)chroman-7-yl)-3-cyclopropyl-2-methylpropanoate]",1.1
3,"COc1cc(-c2ccc(C3CCc4ccc([C@H](C5CCC5)[C@H](C)C(=O)O)cc4O3)cc2CN2CCCC2C)c(F)cn1 (single isomer, unassigned) [Example 100]",0.14
4,"COc1cc(-c2ccc(C3CCc4ccc([C@H](C5CCC5)[C@H](C)C(=O)O)cc4O3)cc2CN2CCCC2(C)C)c(F)cn1 (single isomer, unassigned) [Example 108]",0.1
5,"COc1cc(-c2ccc(C3CCc4ccc([C@H](C5CC5)[C@H](C)C(=O)O)cc4O3)c(CN3CCC[C@@H]3C)c2)ccn1 (single isomer, unassigned) [Example 118b]",109
6,"COc1cc(-c2ccc([C@@H]3CCc4ccc([C@H](C5CC5)[C@H](C)C(=O)O)cc4O3)cc2CN2CC3CC3C2)c(F)cn1 (stereo partly drawn) [Example 250, Sodium (2S,3R)-3-((2S)-2-(3-((3-azabicyclo[3.1.0]hexan-3-yl)methyl)-4-(5-fluoro-2-methoxypyridin-4-yl)phenyl)chroman-7-yl)-3-cyclopropyl-2-methylpropanoate]",0.19
7,"COc1cc(-c2ccc(C3CCc4ccc([C@H](C5CC5)[C@H](C)C(=O)O)cc4O3)c(CN3[C@H](C)CC[C@H]3C)c2)ccn1 (single isomer, unassigned) [Example 116d]",387
8,"CCN(CC)Cc1cc(C2CCc3ccc([C@H](C4CCC4)[C@H](C)C(=O)O)cc3O2)ccc1-c1cc(OC)ncc1F (single isomer, unassigned) [Example 99]",0.18
9,"COc1cc(-c2ccc(C3CCc4ccc([C@H](C5CC5)[C@H](C)C(=O)O)cc4O3)c(CN3CCC[C@@H]3C)c2)c(F)cn1 (single isomer, unassigned) [Example 129a]",0.25
10,CCN(Cc1cc(C2CCc3ccc([C@H](C4CC4)[C@H](C)C(=O)O)cc3O2)ccc1-c1cc(OC)ncc1C#N)C(C)C (stereo partly drawn) [Example 294],0.5
11,"COc1cc(-c2ccc(C3CCc4ccc([C@H](C5CC5)[C@H](C)C(=O)O)cc4O3)c(CN(C(C)C)C(C)C)c2)ccn1 (single isomer, unassigned) [Example 115a]",0.1
12,COc1cc(-c2ccc(C3CCc4ccc([C@H](C5CC5)[C@H](C)C(=O)O)cc4O3)cc2CN2CCCCC2(C)C)ccn1 (stereo partly drawn) [Example 242],3.1
13,"COc1cc(-c2ccc(C3CCc4ccc([C@H](C5CCC5)[C@H](C)C(=O)O)cc4O3)cc2CN2[C@H](C)CC[C@H]2C)c(F)cn1 (single isomer, unassigned) [Example 97]",0.19
14,"COc1cc(-c2ccc(C3CCc4ccc([C@H](C5CC5)[C@H](C)C(=O)O)cc4O3)cc2CN2CC3CC3C2)c(C#N)cn1 (stereo partly drawn) [Example 191, (2S, 3R)-3-(2-(3-(3-azabicyclo[3.1.0]hexan-3-ylmethyl)-4-(5-cyano-2-methoxypyridin-4-yl)phenyl)chroman-7-yl)-3-cyclopropyl-2-methylpropanoic acid]",1.9
15,COc1cc(-c2ccc(C3CCc4ccc([C@H](C5CC5)[C@H](C)C(=O)O)cc4O3)cc2CN(C)C(C)(C)C)ccn1 (stereo partly drawn) [Example 288],21
16,"COc1cc(-c2ccc(C3CCc4ccc([C@H](C5CC5)[C@H](C)C(=O)O)cc4O3)c(F)c2CN2CCCC2)c(F)cn1 (single isomer, unassigned) [Example 220]",7.2
17,CCN(CC)Cc1cc(C2CCc3ccc([C@H](C4CC4)[C@H](C)C(=O)O)cc3O2)ccc1-c1cc(OC)ncc1C#N (mixture of isomers) [Example 197],2.9
18,COc1cc(-c2ccc(C3CCc4ccc([C@H](C5CC5)[C@H](C)C(=O)O)cc4O3)cc2CN2CCC(C#N)CC2)c(F)cn1 (stereo partly drawn) [Example 271],2.6
19,"COc1cc(-c2ccc(C3CCc4ccc([C@H](C5CC5)[C@H](C)C(=O)O)c(F)c4O3)cc2CN2CCC[C@@H]2C)c(F)cn1 (single isomer, unassigned) [Example 213]",1.4
20,"COc1cc(-c2ccc(C3CCc4ccc([C@H](C5CC5)[C@H](C)C(=O)O)cc4O3)c(CN3CCCC3(C)C)c2)ccn1 (mixture of isomers) [Example 111, (2S,3R)-3-cyclopropyl-3-(2-(2-((2,2-dimethylpyrrolidin-1-yl)methyl)-4-(2-methoxypyridin-4-yl)phenyl)chroman-7-yl)-2-methylpropanoic acid]",0.7
21,"COc1cc(-c2ccc(C3CCc4ccc([C@H](C5CC5)[C@H](C)C(=O)O)cc4O3)cc2CN2CC3CC3C2)c(C#N)cn1 (single isomer, unassigned) [Example 192]",0.3
22,COc1cc(-c2ccc(C3CCc4ccc([C@H](C5CC5)[C@H](C)C(=O)O)cc4O3)cc2CN2CCCC3(CC3)C2)c(F)cn1 (stereo partly drawn) [Example 260],0.9
23,"COc1cc(-c2cc(F)c(C3CCc4ccc([C@H](C5CC5)[C@H](C)C(=O)O)cc4O3)cc2CN2CCCCC23CC3)ccn1 (single isomer, unassigned) [Example 187]",0.4
24,COc1cc(-c2ccc(C3CCc4ccc([C@H](C5CC5)[C@H](C)C(=O)O)cc4O3)c(CN(C)C(C)(C)C)c2)c(F)cn1 (mixture of isomers) [Example 125],2.2

# Target: T1, human GPR40
# Test: Inositol Phosphate Turnover (IP1) Assay 2
# Type: cell-based
# Settings: HEK cells stably expressing human GPR40; 15,000 cells per well; compound acoustically transferred; CisBio IP-One kit
# Experimental: Human and mouse GPR40 stable cell-lines were generated in CHO cells stably expressing NFAT BLA (Beta-lactamase). A human GPR40 stable cell-line was generated in HEK cells stably expressing the aequorin expressing reporter. The expression plasmids were transfected using lipofectamine (Life Technologies) following manufacturer's instructions. Stable cell-lines were generated following drug selection.
# Inositol Phosphate Turnover (IP1) Assay 2:
# The assay was performed in 384-well format. HEK cells stably expressing human GPR40 were plated at 15,000 cells per well in growth medium (DMEM/10% fetal calf serum). Cell plates were then incubated 16 hours at 37 degrees in a 5% CO2 incubator.
# Measurement of Inositol Phosphate Turnover (IP1) was performed using the CisBio IP-One kit (Part number 62IPAPEB). After the 16 hour incubation, the cells were washed with HEPES buffer and 10 ul of stimulation buffer (prepared as described in the kit) was added to each well. In a separate plate, compounds were diluted in DMSO (400-fold over the final concentration in the assay well) and 25 nl was acoustically transferred to the appropriate well in the assay cell plate. The plates were then incubated for 60 minutes at 37 degrees. 10 ul of detection buffer (also prepared as described in the IP-One kit) was added to each well and the plates were incubated for 60 minutes in the dark. The plates were then read in a Perkin Elmer EnVision or equivalent reader able to measure FRET. Fluorescent ratio of emission at 665 and 620 nm was then converted to IP1 concentration by back calculating from an IP1 standard curve prepared at the time of the assay.
row,SMILES,EC50 [nM]
1,"COc1cc(-c2ccc(C3CCc4ccc([C@H](C5CC5)[C@H](C)C(=O)O)cc4O3)cc2CN2CCOCC2)c(F)cn1 (single isomer, unassigned) [Example 11b]",2.4
2,"COc1cc(-c2ccc(C3CCc4ccc([C@H](C5CCC5)[C@H](C)C(=O)O)cc4O3)cc2CN(C)C)c(F)cn1 (single isomer, unassigned) [Example 94]",1.8
3,COc1cc(-c2ccc(C3CCc4ccc([C@H](C5CC5)[C@H](C)C(=O)O)cc4O3)cc2CN2CC[C@@H](F)C2)c(F)cn1 (stereo partly drawn) [Example 16],2.3
4,COc1cc(-c2ccc(C3CCc4ccc([C@H](C5CC5)[C@H](C)C(=O)O)cc4O3)cc2CN2CCC3OCCC32)c(F)cn1 (stereo partly drawn) [Example 39],2.1
5,"COc1cc(-c2cc(F)c(C3CCc4ccc([C@H](C5CC5)[C@H](C)C(=O)O)cc4O3)cc2CN2CCCC2)ccn1 (stereo partly drawn) [Example 180, 1RS, (2S, 3R)-3-cyclopropyl-3-(2-(2-fluoro-4-(2-methoxypyridin-4-yl)-5-(pyrrolidin-1-ylmethyl)phenyl)chroman-7-yl)-2-methylpropanoic acid]",41
6,COc1cc(-c2ccc([C@H]3CCc4ccc([C@H](C5CC5)[C@H](C)C(=O)O)cc4O3)cc2CN2CCCCC23CC3)c(F)cn1 [Example 144],0.3
7,COc1cc(-c2ccc(C3CCc4ccc([C@H](C5CC5)[C@H](C)C(=O)O)cc4O3)cc2CN2CC(F)C2)c(F)cn1 (mixture of isomers) [Example 47],3.5
8,"COc1cc(-c2ccc(C3CCc4ccc([C@H](C5CC5)[C@H](C)C(=O)O)cc4O3)cc2CN2CC[C@H](C(F)(F)F)C2)c(F)cn1 (single isomer, unassigned) [Example 30]",1.5
9,"COc1cc(-c2ccc(C3CCc4ccc([C@H](C5CCC5)[C@H](C)C(=O)O)cc4O3)cc2CN2CCCC2)c(F)cn1 (single isomer, unassigned) [Example 92]",4
